This note sets out measurements from patent US9334279B2, “Hepatitis C virus inhibitors” (BRISTOL-MYERS SQUIBB COMPANY, priority 2012, dated 2016).

One test concerns HCV GT1a(H77) replicon. As to the kind of experiment: HCV replicon luciferase reporter assay, genotype 1a. The class given is cell-based, HCV genotype 1a. The conditions noted are these: Hepatitis C virus, 72 h, HUH-7 cells, Renilla luciferase, 3 days incubation. The text has this:
A stable HCV GT1a(H77) replicon luciferase reporter cell line (Yanagi M, Purcell RH, Emerson S U, et al. Transcripts from a single full-length cDNA clone of hepatitis C virus are infectious when directly transfected into the liver of a chimpanzee. Proc Natl Acad Sci USA 1997; 94(16):8738-8743) was generated as described previously for the genotype 1b(Con1) replicon luciferase cell line. The replicon construct was modified by introducing mutations into the genes encoding the NS3 helicase domain (proline replaced by leucine at position 1496) and NS5A (serine to isoleucine at position 2204) to improve replication in cell culture.
(§1) HCV replicon luciferase assays were developed to monitor the inhibitory effects of compounds described in the disclosure on HCV genotypes 1a and 1b viral replication. HUH-7 cells, constitutively expressing the HCV replicon, were grown in Dulbecco's Modified Eagle Media (DMEM) (Gibco-BRL) containing 10% Fetal calf serum (FCS) (Sigma) and 1 mg/mL G418 (Gibco-BRL). Compounds were serially diluted 3 folds in DMSO for a twenty-point titration and subsequently transferred to sterile 384-well tissue-culture treated plates (Corning cat #3571). The plates were then seeded with 50 μL of cells at a density of 3.0×10^3 cells/well in DMEM containing 4% FCS (final DMSO concentration at 0.5%). After 3 days incubation at 37° C., cells were analyzed for Renilla Luciferase activity using the EnduRen as substrate (Promega cat #E6485). The EnduRen substrate was diluted in DMEM and then added to the plates to a final concentration of 7.5 μM. The plates were incubated for 2 hrs at 37° C. and then read immediately for 30 seconds with Viewlux Imager (PerkinElmer) using a luminescence program. To assess cytotoxicity of compounds, CC50 values were generated by multiplexing the EnduRen-containing plates with Cell Titer-Blue (Promega, cat #G8082). Cell-Titer Blue (3 μL) was added to each well and incubated for 8 hrs at 37° C. The fluorescence signal from each well was read, with an excitation wavelength at 525/10 nm and an emission wavelength of 598/10 nm, using the Viewlux Imager.
(§2) The EC50 values for compounds were calculated by using a four-parameter logistic equation: y=A+[…])/(1+((C/x)^D))), where A and B denotes minimal and maximal % inhibition, respectively, C is the EC50, D is the hill slope and x represents compound concentration.
For orientation: A replicon is a self-replicating genome or part of one, used to study replication in cells.

Another test has as its system HCV GT1b(Con1) replicon. In words: HCV replicon luciferase reporter assay, genotype 1b. It counts as cell-based, HCV genotype 1b. To be noted: Hepatitis C virus, 72 h, HUH-7 cells, Renilla luciferase, 3 days incubation.
Excerpt: An HCV GT1b(Con1) replicon cell system was established as described by Lohmann V, Korner F, Koch J, Herian U, Theilmann L, Bartenschlager R., Science 285(5424):110-3 (1999) and modified to introduce a luciferase reporter (Krieger N, Lohmann V, and Bartenschlager R, J. Virol. 75(10):4614-4624 (2001)). cDNA encoding a humanized form of the Renilla luciferase gene, and a linker sequence fused directly to the 3′-end of the luciferase gene were introduced into the replicon construct using an Asc1 restriction site located in core, directly upstream of the neomycin marker gene. The adaptive mutation at position 1179 (serine to isoleucine) was also introduced (Blight K J, Kolykhalov, A A, Rice, C M, Science 290(5498):1972-1974). A stable cell line constitutively expressing this HCV replicon construct was generated by first linearizing plasmid DNAs with ScaI. RNA transcripts were synthesized in vitro using the T7 MegaScript transcription kit (Ambion, Austin, Tex.) according to manufacturer's directions. In vitro transcripts of the cDNA were transfected into the human hepatoma cell line, HUH-7. […] Resulting cell lines were characterized for positive and negative strand RNA production and protein production over time.
as §1, §2

Structures are written as SMILES. Read-outs that look alike come from different tables or passages of the source.

As to `CC(C)Oc1ccc(-c2cc(O[C@@H]3C[C@H]4C(=O)N[C@]5(C(=O)NS(=O)(=O)C6(C)CC6)C[C@H]5/C=C\CC[C@H](C)C[C@@H](C)[C@H](NC(=O)OC(C)(C)C(F)(F)F)C(=O)N4C3)cc(-c3cncs3)n2)cc1` [Compound 1004, 1,1,1-trifluoro-2-methylpropan-2-yl ((2R,6S,7R,9S,13aS,14aR,16aS,Z)-2-((2-(4-isopropoxyphenyl)-6-(thiazol-5-yl)pyridin-4-yl)oxy)-7,9-dimethyl-14a-(((1-methylcyclopropyl)sulfonyl)carbamoyl)-5,16-dioxo-1,2,3,5,6,7,8,9,10,11,13a,14,14a,15,16,16a-hexadecahydrocyclopropa[e]pyrrolo[1,2-a][1,4]diazacyclopentadecin-6-yl)carbamate], the EC50 in the test on HCV GT1a(H77) replicon (read-out: LE_1a (EC50, range)) is 5.01 to 35 nM; in the test with HCV GT1b(Con1) replicon (read-out: LE_1b (EC50, range)), 1.01 to 5 nM.
Consider `CC(C)Oc1ccc(-c2cc(O[C@@H]3C[C@H]4C(=O)N[C@]5(C(=O)NS(=O)(=O)C6(C)CC6)C[C@H]5/C=C\CC[C@@H](C)C[C@@H](C)[C@H](NC(=O)OC(C)(C)C(F)(F)F)C(=O)N4C3)cc(-c3cccnc3)n2)cc1` [Compound 1005, 1,1,1-trifluoro-2-methylpropan-2-yl ((2R,6S,7R,9R,13aS,14aR,16aS,Z)-2-((6-(4-isopropoxyphenyl)-[2,3′-bipyridin]-4-yl)oxy)-7,9-dimethyl-14a-(((1-methylcyclopropyl)sulfonyl)carbamoyl)-5,16-dioxo-1,2,3,5,6,7,8,9,10,11,13a,14,14a,15,16,16a-hexadecahydrocyclopropa[e]pyrrolo[1,2-a][1,4]diazacyclopentadecin-6-yl)carbamate], for which the EC50 was 1.48 nM in the test on HCV GT1a(H77) replicon (read-out: LE_1a (EC50)); 1.01 to 5 nM with HCV GT1a(H77) replicon (read-out: LE_1a (EC50, range)); 1.71 nM in the test with HCV GT1b(Con1) replicon (read-out: LE_1b (EC50)); 1.01 to 5 nM in the test on HCV GT1b(Con1) replicon (read-out: LE_1b (EC50, range)).
As to `CC(C)Oc1ccc(-c2cc(O[C@@H]3C[C@H]4C(=O)N[C@]5(C(=O)NS(=O)(=O)C6(C)CC6)C[C@H]5/C=C\CC[C@H](C)C[C@@H](C)[C@H](NC(=O)OC(C)(C)C(F)(F)F)C(=O)N4C3)cc(-c3cccnc3)n2)cc1` [Compound 1006, 1,1,1-trifluoro-2-methylpropan-2-yl ((2R,6S,7R,9S,13aS,14aR,16aS,Z)-2-((6-(4-isopropoxyphenyl)-[2,3′-bipyridin]-4-yl)oxy)-7,9-dimethyl-14a-(((1-methylcyclopropyl)sulfonyl)carbamoyl)-5,16-dioxo-1,2,3,5,6,7,8,9,10,11,13a,14,14a,15,16,16a-hexadecahydrocyclopropa[e]pyrrolo[1,2-a][1,4]diazacyclopentadecin-6-yl)carbamate], the EC50 fell in the range of 5.01 to 35 nM in the test with HCV GT1a(H77) replicon (read-out: LE_1a (EC50, range)) and 5.01 to 35 nM in the test with HCV GT1b(Con1) replicon (read-out: LE_1b (EC50, range)).
Consider `CC(C)Oc1ccc(-c2cc(O[C@@H]3C[C@H]4C(=O)N[C@]5(C(=O)NS(=O)(=O)C6(C)CC6)C[C@H]5/C=C\CC[C@@H](C)C[C@@H](C)[C@H](NC(=O)OC(C)(C)C(F)(F)F)C(=O)N4C3)cc(-c3nccs3)n2)cc1` [Compound 1007, 1,1,1-trifluoro-2-methylpropan-2-yl ((2R,6S,7R,9R,13aS,14aR,16aS,Z)-2-((2-(4-isopropoxyphenyl)-6-(thiazol-2-yl)pyridin-4-yl)oxy)-7,9-dimethyl-14a-(((1-methylcyclopropyl)sulfonyl)carbamoyl)-5,16-dioxo-1,2,3,5,6,7,8,9,10,11,13a,14,14a,15,16,16a-hexadecahydrocyclopropa[e]pyrrolo[1,2-a][1,4]diazacyclopentadecin-6-yl)carbamate], for which the EC50 lay in the range of 1.01 to 5 nM with HCV GT1a(H77) replicon (read-out: LE_1a (EC50, range)) and 1.01 to 5 nM with HCV GT1b(Con1) replicon (read-out: LE_1b (EC50, range)).
For `CC(C)Oc1ccc(-c2cc(O[C@@H]3C[C@H]4C(=O)N[C@]5(C(=O)NS(=O)(=O)C6(C)CC6)C[C@H]5/C=C\CC[C@H](C)C[C@@H](C)[C@H](NC(=O)OC(C)(C)C(F)(F)F)C(=O)N4C3)cc(-c3nccs3)n2)cc1` [Compound 1008, 1,1,1-trifluoro-2-methylpropan-2-yl ((2R,6S,7R,9S,13aS,14aR,16aS,Z)-2-((2-(4-isopropoxyphenyl)-6-(thiazol-2-yl)pyridin-4-yl)oxy)-7,9-dimethyl-14a-(((1-methylcyclopropyl)sulfonyl)carbamoyl)-5,16-dioxo-1,2,3,5,6,7,8,9,10,11,13a,14,14a,15,16,16a-hexadecahydrocyclopropa[e]pyrrolo[1,2-a][1,4]diazacyclopentadecin-6-yl)carbamate], the EC50 with HCV GT1a(H77) replicon (read-out: LE_1a (EC50, range)) lay in the range of 5.01 to 35 nM; in the test on HCV GT1b(Con1) replicon (read-out: LE_1b (EC50, range)), 1.01 to 5 nM.
The like results for `CC(C)Oc1ccc(-c2cc(O[C@@H]3C[C@H]4C(=O)N[C@]5(C(=O)NS(=O)(=O)C6(C)CC6)C[C@H]5/C=C\CC[C@@H](C)C[C@@H](C)[C@H](NC(=O)OC(C)(C)C(F)(F)F)C(=O)N4C3)cc(-c3ccncc3)n2)cc1` [Compound 1009, 1,1,1-trifluoro-2-methylpropan-2-yl ((2R,6S,7R,9R,13aS,14aR,16aS,Z)-2-((6-(4-isopropoxyphenyl)-[2,4′-bipyridin]-4-yl)oxy)-7,9-dimethyl-14a-(((1-methylcyclopropyl)sulfonyl)carbamoyl)-5,16-dioxo-1,2,3,5,6,7,8,9,10,11,13a,14,14a,15,16,16a-hexadecahydrocyclopropa[e]pyrrolo[1,2-a][1,4]diazacyclopentadecin-6-yl)carbamate] were, in that order, 1.01 to 5 nM and 1.01 to 5 nM.
The like results for `CC(C)Oc1ccc(-c2cc(O[C@@H]3C[C@H]4C(=O)N[C@]5(C(=O)NS(=O)(=O)C6(C)CC6)C[C@H]5/C=C\CC[C@H](C)C[C@@H](C)[C@H](NC(=O)OC(C)(C)C(F)(F)F)C(=O)N4C3)cc(-c3ccncc3)n2)cc1` [Compound 1010, 1,1,1-trifluoro-2-methylpropan-2-yl ((2R,6S,7R,9S,13aS,14aR,16aS,Z)-2-((6-(4-isopropoxyphenyl)-[2,4′-bipyridin]-4-yl)oxy)-7,9-dimethyl-14a-(((1-methylcyclopropyl)sulfonyl)carbamoyl)-5,16-dioxo-1,2,3,5,6,7,8,9,10,11,13a,14,14a,15,16,16a-hexadecahydrocyclopropa[e]pyrrolo[1,2-a][1,4]diazacyclopentadecin-6-yl)carbamate] were, in that order, 5.01 to 35 nM and 5.01 to 35 nM.
The like results for `COc1cccc(-c2cc(O[C@@H]3C[C@H]4C(=O)N[C@]5(C(=O)NS(=O)(=O)C6(C)CC6)C[C@H]5/C=C\CC[C@@H](C)C[C@@H](C)[C@H](NC(=O)OC(C)(C)C(F)(F)F)C(=O)N4C3)cc(-c3ccc(OC(C)C)cc3)n2)n1` [Compound 1011, 1,1,1-trifluoro-2-methylpropan-2-yl ((2R,6S,7R,9R,13aS,14aR,16aS,Z)-2-((6-(4-isopropoxyphenyl)-6′-methoxy-[2,2′-bipyridin]-4-yl)oxy)-7,9-dimethyl-14a-(((1-methylcyclopropyl)sulfonyl)carbamoyl)-5,16-dioxo-1,2,3,5,6,7,8,9,10,11,13a,14,14a,15,16,16a-hexadecahydrocyclopropa[e]pyrrolo[1,2-a][1,4]diazacyclopentadecin-6-yl)carbamate] were, in that order, 1.01 to 5 nM and 1.01 to 5 nM.

One may read the EC50 as the concentration needed to bring the measured effect to its halfway point.
